ChEMBL document CHEMBL2413076, “Synthesis and biological evaluation of ursolic acid-triazolyl derivatives as potential anti-cancer agents” (Eur J Med Chem, 2013)

Tests used:
MCF7 [1] = assay: Growth inhibition of human MCF7 cells assessed as dead cells at 1 uM after 48 hrs by sulforhodamine-B assay relative to control; type: functional; conditions: MCF7, 48 h, read-out: GI
A549 [2] = assay: Growth inhibition of human A549 cells assessed as dead cells at 1 uM after 48 hrs by sulforhodamine-B assay relative to control; type: functional; conditions: A549, 48 h, read-out: GI
THP-1 [3] = assay: Growth inhibition of human THP1 cells assessed as dead cells at 20 uM after 48 hrs by sulforhodamine-B assay relative to control; type: functional; conditions: THP-1, 48 h, read-out: GI
A549 [4] = assay: Growth inhibition of human A549 cells assessed as dead cells at 20 uM after 48 hrs by sulforhodamine-B assay relative to control; type: functional; conditions: A549, 48 h, read-out: GI
HCT-116 [5] = assay: Growth inhibition of human HCT116 cells assessed as dead cells at 20 uM after 48 hrs by sulforhodamine-B assay relative to control; type: functional; conditions: HCT-116, 48 h, read-out: GI
HCT-116 [6] = assay: Growth inhibition of human HCT116 cells assessed as dead cells at 10 uM after 48 hrs by sulforhodamine-B assay relative to control; type: functional; conditions: HCT-116, 48 h, read-out: GI
A549 [7] = assay: Growth inhibition of human A549 cells assessed as dead cells at 10 uM after 48 hrs by sulforhodamine-B assay relative to control; type: functional; conditions: A549, 48 h, read-out: GI
MCF7 [8] = assay: Growth inhibition of human MCF7 cells after 48 hrs by sulforhodamine-B assay; type: functional, cell-based; conditions: MCF7, 48 h
A549 [9] = assay: Growth inhibition of human A549 cells after 48 hrs by sulforhodamine-B assay; type: functional, cell-based; conditions: A549, 48 h
THP-1 [10] = assay: Growth inhibition of human THP1 cells after 48 hrs by sulforhodamine-B assay; type: functional, cell-based; conditions: THP-1, 48 h
HCT-116 [11] = assay: Growth inhibition of human HCT116 cells assessed as dead cells at 50 uM after 48 hrs by sulforhodamine-B assay relative to control; type: functional; conditions: HCT-116, 48 h, read-out: GI
MCF7 [12] = assay: Growth inhibition of human MCF7 cells assessed as dead cells at 10 uM after 48 hrs by sulforhodamine-B assay relative to control; type: functional; conditions: MCF7, 48 h, read-out: GI
THP-1 [13] = assay: Growth inhibition of human THP1 cells assessed as dead cells at 50 uM after 48 hrs by sulforhodamine-B assay relative to control; type: functional; conditions: THP-1, 48 h, read-out: GI
[14] = Growth inhibition of human FR2 cells assessed as dead cells at 50 uM after 48 hrs by sulforhodamine-B assay relative to control; type: cell-based; conditions: read-out: GI
[15] = Growth inhibition of human FR2 cells after 48 hrs by sulforhodamine-B assay; type: cell-based; conditions: FR2, 48 h
HCT-116 [16] = assay: Growth inhibition of human HCT116 cells after 48 hrs by sulforhodamine-B assay; type: functional, cell-based; conditions: HCT-116, 48 h
THP-1 [17] = assay: Growth inhibition of human THP1 cells assessed as dead cells at 10 uM after 48 hrs by sulforhodamine-B assay relative to control; type: functional; conditions: THP-1, 48 h, read-out: GI
[18] = Growth inhibition of human FR2 cells assessed as dead cells at 10 uM after 48 hrs by sulforhodamine-B assay relative to control; type: cell-based; conditions: read-out: GI
A549 [19] = assay: Growth inhibition of human A549 cells assessed as dead cells at 50 uM after 48 hrs by sulforhodamine-B assay relative to control; type: functional; conditions: A549, 48 h, read-out: GI
MCF7 [20] = assay: Growth inhibition of human MCF7 cells assessed as dead cells at 50 uM after 48 hrs by sulforhodamine-B assay relative to control; type: functional; conditions: MCF7, 48 h, read-out: GI

| SMILES | inhibition of growth at 1 µM (MCF7 [1]) [%] | inhibition of growth at 1 µM (A549 [2]) [%] | inhibition of growth at 20 µM (THP-1 [3]) [%] | inhibition of growth at 20 µM (A549 [4]) [%] | inhibition of growth at 20 µM (HCT-116 [5]) [%] | inhibition of growth at 10 µM (HCT-116 [6]) [%] | inhibition of growth at 10 µM (A549 [7]) [%] | IC50 (MCF7 [8]) [µM] | IC50 (A549 [9]) [nM] | IC50 (THP-1 [10]) [nM] | inhibition of growth at 50 µM (HCT-116 [11]) [%] | inhibition of growth at 10 µM (MCF7 [12]) [%] | inhibition of growth at 50 µM (THP-1 [13]) [%] | inhibition at 48 h, 50 µM [14] [%] | IC50 [15] [µM] | IC50 (HCT-116 [16]) [µM] | inhibition of growth at 10 µM (THP-1 [17]) [%] | inhibition at 48 h, 10 µM [18] [%] | inhibition of growth at 50 µM (A549 [19]) [%] | inhibition of growth at 50 µM (MCF7 [20]) [%] |
| --- | --- | --- | --- | --- | --- | --- | --- | --- | --- | --- | --- | --- | --- | --- | --- | --- | --- | --- | --- | --- |
| CO[C@@]12[C@H](COC(N)=O)C3=C(C(=O)C(C)=C(N)C3=O)N1C[C@@H]1N[C@@H]12 [MITOMYCIN] | 82 | 70 |  |  |  |  |  |  |  |  |  |  |  |  |  |  |  |  |  |  |
| O=c1[nH]cc(F)c(=O)[nH]1 [FLUOROURACIL] |  |  | 96 | 86 | 76 |  |  |  |  |  |  |  |  |  |  |  |  |  |  |  |
| C[C@H]1[C@H](C)CC[C@]2(C(=O)O)CC[C@]3(C)C(=CC[C@@H]4[C@@]5(C)CC[C@H](O)C(C)(C)[C@@H]5CC[C@]43C)[C@H]12 [URSOLIC ACID] |  |  |  |  |  | 55 | 28 | 37 | 33000 | 9100 | 53 | 36 | 84 | 66 | 31 | 42 | 31 | 31 | 61 | 57 |
| Cc1ccc(-n2cc(COC(=O)[C@]34CC[C@@H](C)[C@H](C)[C@H]3C3=CC[C@@H]5[C@@]6(C)CCC(=O)C(C)(C)[C@@H]6CC[C@@]5(C)[C@]3(C)CC4)nn2)cc1C |  |  |  |  |  | 91 | 74 | 5.5 | 500 | 900 | 99 | 69 | 94 | 85 | 10 | < 0.1 | 82 | 68 | 93 | 99 |
| C[C@H]1[C@H](C)CC[C@]2(C(=O)OCc3cn(-c4ccccc4Br)nn3)CC[C@]3(C)C(=CC[C@@H]4[C@@]5(C)CCC(=O)C(C)(C)[C@@H]5CC[C@]43C)[C@H]12 |  |  |  |  |  | 41 | 85 | < 0.1 | 2900 | < 100 | 99 | 80 | 99 | 99 | 69 | 15 | 92 | 2 | 99 | 99 |
